Measured values: patent US12685735B2 (Foghorn Therapeutics Inc., priority 2020, dated 2026)

Columns and labels:
[1] = biological target: BRG-1 (Homo sapiens, UniProt P51532); experiment: ATPase catalytic activity assay of BRG-1 (ADP-Glo); type: biochemical; settings: ATPase catalytic activity, ADP-Glo; for IC50: read-out: BRG1 IC50 (μM)*; for Emax: read-out: BRG1 Max % Inhibition
Outline: (§1)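 Once the enzyme reaction finished, residual ATP is removed with ADP-Glo Reagent over 40 minutes at room temperature. Kinase Detection Reagent then converts product ADP into ATP during a 60-minute room-temperature incubation, and the luciferase signal is read.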

[2] = biological target: BRM (Homo sapiens, UniProt P51531); experiment: ATPase catalytic activity assay of BRM (ADP-Glo); type: biochemical; settings: for IC50: read-out: BRM IC50 (μM)*
Outline: as §1

Chain of BRG-1 (P51532 whole entry): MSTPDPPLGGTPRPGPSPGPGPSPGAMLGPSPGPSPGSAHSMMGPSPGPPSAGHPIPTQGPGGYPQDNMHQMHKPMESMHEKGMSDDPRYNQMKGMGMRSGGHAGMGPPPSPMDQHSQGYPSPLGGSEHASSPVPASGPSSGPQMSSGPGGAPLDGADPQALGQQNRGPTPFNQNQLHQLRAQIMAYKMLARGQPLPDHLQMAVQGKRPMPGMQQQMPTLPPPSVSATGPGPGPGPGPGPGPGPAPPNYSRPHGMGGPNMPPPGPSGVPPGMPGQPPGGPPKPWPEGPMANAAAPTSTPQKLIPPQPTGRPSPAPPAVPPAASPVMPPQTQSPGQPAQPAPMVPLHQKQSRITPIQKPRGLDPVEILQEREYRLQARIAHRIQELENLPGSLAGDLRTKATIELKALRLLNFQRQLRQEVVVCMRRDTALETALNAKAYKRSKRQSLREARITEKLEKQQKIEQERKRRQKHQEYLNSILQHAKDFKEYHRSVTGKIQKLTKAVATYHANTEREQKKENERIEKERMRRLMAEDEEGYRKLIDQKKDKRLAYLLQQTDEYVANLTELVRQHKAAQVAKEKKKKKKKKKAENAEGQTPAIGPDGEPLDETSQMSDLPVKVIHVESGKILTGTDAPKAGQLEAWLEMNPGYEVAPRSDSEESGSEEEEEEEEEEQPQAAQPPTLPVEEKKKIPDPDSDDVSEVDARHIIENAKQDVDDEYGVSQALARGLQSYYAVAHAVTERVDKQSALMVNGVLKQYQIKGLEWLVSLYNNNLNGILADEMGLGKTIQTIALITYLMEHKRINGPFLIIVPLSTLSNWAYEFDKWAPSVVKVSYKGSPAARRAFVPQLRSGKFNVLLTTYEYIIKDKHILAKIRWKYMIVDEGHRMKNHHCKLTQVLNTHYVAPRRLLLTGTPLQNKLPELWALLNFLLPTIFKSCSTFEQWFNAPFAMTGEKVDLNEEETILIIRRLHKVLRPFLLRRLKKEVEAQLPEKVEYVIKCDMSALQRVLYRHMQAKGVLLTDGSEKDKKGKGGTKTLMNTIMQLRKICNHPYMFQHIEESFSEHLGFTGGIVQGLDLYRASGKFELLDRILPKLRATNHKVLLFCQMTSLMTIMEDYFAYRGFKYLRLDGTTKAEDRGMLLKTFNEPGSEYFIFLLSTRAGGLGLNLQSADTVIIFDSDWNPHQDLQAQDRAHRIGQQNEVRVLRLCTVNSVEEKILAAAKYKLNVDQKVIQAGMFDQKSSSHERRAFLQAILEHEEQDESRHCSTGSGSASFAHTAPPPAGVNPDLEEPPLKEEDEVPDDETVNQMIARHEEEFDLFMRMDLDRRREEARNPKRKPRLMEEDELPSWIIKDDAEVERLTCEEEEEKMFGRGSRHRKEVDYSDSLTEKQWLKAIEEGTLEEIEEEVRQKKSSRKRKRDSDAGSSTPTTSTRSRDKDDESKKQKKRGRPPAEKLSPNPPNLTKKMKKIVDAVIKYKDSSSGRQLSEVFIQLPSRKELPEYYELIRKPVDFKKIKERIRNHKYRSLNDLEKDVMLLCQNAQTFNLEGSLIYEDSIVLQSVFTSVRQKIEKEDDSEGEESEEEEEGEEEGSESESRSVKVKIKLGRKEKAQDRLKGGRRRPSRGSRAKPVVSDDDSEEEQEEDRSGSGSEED
Chain of BRM (P51531 whole entry): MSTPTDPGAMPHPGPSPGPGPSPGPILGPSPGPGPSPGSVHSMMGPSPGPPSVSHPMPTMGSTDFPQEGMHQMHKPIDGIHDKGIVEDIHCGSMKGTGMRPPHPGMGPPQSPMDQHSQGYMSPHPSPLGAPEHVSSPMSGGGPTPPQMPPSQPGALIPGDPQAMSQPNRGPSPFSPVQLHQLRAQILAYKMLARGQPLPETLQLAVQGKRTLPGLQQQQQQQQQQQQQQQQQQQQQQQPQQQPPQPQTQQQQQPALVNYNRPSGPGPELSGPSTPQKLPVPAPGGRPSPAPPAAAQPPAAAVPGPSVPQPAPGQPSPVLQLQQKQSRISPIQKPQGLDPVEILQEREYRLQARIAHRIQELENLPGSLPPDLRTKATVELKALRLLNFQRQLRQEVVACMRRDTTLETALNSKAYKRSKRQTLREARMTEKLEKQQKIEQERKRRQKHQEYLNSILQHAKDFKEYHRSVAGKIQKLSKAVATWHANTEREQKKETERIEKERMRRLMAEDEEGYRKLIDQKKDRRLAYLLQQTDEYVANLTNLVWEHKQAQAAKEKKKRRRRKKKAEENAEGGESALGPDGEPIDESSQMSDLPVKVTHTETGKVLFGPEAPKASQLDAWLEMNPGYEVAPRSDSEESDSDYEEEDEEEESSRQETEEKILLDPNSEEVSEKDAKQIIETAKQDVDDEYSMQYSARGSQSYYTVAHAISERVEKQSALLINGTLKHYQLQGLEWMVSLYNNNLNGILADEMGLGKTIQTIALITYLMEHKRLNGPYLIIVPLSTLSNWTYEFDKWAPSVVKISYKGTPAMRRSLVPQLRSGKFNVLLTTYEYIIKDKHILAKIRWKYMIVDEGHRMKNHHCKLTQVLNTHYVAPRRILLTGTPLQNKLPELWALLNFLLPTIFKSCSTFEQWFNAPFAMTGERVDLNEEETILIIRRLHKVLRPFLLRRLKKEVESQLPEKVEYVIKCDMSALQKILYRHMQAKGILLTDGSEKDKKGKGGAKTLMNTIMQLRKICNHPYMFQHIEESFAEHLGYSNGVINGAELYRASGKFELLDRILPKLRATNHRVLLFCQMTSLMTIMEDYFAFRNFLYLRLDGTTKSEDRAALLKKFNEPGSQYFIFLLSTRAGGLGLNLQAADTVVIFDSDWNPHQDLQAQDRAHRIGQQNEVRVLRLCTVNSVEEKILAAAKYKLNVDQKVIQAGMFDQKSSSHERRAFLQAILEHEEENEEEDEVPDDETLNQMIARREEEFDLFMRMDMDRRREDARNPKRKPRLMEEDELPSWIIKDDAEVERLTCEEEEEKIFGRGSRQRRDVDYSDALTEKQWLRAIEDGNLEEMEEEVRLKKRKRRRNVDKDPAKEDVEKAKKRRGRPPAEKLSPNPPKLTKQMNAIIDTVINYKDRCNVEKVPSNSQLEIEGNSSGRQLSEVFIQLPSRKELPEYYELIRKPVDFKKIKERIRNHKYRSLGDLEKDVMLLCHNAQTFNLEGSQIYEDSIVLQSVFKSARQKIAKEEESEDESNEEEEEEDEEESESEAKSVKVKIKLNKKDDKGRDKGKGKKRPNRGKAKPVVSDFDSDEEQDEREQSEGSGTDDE

Structure (SMILES) | IC50 [1] | Emax [1] | BRM Max % Inhibition [2] | IC50 [2] | BRG1 Max % Inhibition [1]
CC(C)(/C(N)=N\O)c1cccc(C(=O)NCC(=O)Nc2nc(-c3cccc(-c4ccncc4)c3)cs2)c1 [Compound 83, (E)-3-(1-amino-1-(hydroxyimino)-2-methylpropan-2-yl)-N-(2-oxo-2-((4-(3-(pyridin-4-yl)phenyl)thiazol-2-yl)amino)ethyl)benzamide] | > 5 µM | > 50% | >90% | 1 to 5 µM | –
CC(C)(N)c1cccc(C(=O)NCC(=O)Nc2nc(-c3cccc(-c4ccncc4)c3)cs2)c1 [Compound 86, 3-(2-aminopropan-2-yl)-N-(2-oxo-2-((4-(3-(pyridin-4-yl)phenyl)thiazol-2-yl)amino)ethyl)benzamide] | 1 to 5 µM | > 60% | >80% | > 5 µM | –
CC(C)(C#N)c1cccc(C(=O)NCC(=O)Nc2nc(-c3cccc(-c4ccncc4)c3)cs2)c1 [Compound 87, 3-(2-cyanopropan-2-yl)-N-(2-oxo-2-((4-(3-(pyridin-4-yl)phenyl)thiazol-2-yl)amino)ethyl)benzamide] | > 5 µM | < 30% | >80% | 0.1 to 1 µM | –
C[C@H](N)C(C)(C)c1cccc(C(=O)NCC(=O)Nc2nc(-c3cccc(-c4ccncc4)c3)cs2)c1 [Compound 91] | > 5 µM | > 30% | >50% | 1 to 5 µM | –
Cc1cc(-c2cccc(-c3csc(NC(=O)CNC(=O)c4ccc(C)c(C(C)(C)CN)c4)n3)c2)cc(C)n1 [Compound 92] | 0.1 to 1 µM | > 95% | >95% | < 0.1 µM | –
Cc1cc(-c2cccc(-c3csc(NC(=O)CNC(=O)c4cccc(C(C)(C)CO)c4)n3)c2)nc(C)n1 [Compound 93] | 0.1 to 1 µM | > 90% | >95% | < 0.1 µM | –
Cc1cc(-c2cccc(-c3csc(NC(=O)CNC(=O)c4cccc(C(C)(C)CO)c4)n3)c2)nc(C)n1 [Compound 94] | < 0.1 µM | – | >95% | < 0.1 µM | >95%
Cc1nccc(-c2cccc(-c3csc(NC(=O)CNC(=O)c4cccc(C(C)(C)CN)c4)n3)c2)n1 [Compound 95] | 0.1 to 1 µM | > 90% | >95% | < 0.1 µM | –

The remaining lines, values ahead:

IC50 [1] | Emax [1] | BRM Max % Inhibition [2] | IC50 [2] | BRG1 Max % Inhibition [1] | Structure (SMILES)
1 to 5 µM | > 90% | >95% | 0.1 to 1 µM | – | CC(C)(C(N)=O)c1cccc(C(=O)NCC(=O)Nc2nc(-c3cccc(-c4ccncc4)c3)cs2)c1 [Compound 84, 3-(1-amino-2-methyl-1-oxopropan-2-yl)-N-(2-oxo-2-((4-(3-(pyridin-4-yl)phenyl)thiazol-2-yl)amino)ethyl)benzamide]
> 5 µM | > 60% | >80% | > 5 µM | – | CSCC[C@H](NC(=O)c1ccc2c(c1)C(C)(O)C(=O)N2)C(=O)Nc1nc(-c2ccccc2)cs1 (stereo partly drawn) [Compound 85, 3-hydroxy-3-methyl-N—((S)-4-(methylthio)-1-oxo-1-((4-phenylthiazol-2-yl)amino)butan-2-yl)-2-oxoindoline-5-carboxamide]
> 5 µM | > 30% | >80% | 1 to 5 µM | – | Cc1cc(C)c(C(C)(C)CN)cc1C(=O)NCC(=O)Nc1nc(-c2cccc(-c3ccncc3)c2)cs1 [Compound 89]
> 5 µM | < 30% | >60% | 1 to 5 µM | – | Cc1cc(-c2cccc(-c3csc(NC(=O)CNC(=O)c4cccc(C(C)(C)C(C)C)c4)n3)c2)cc(C)n1 [Compound 90]
1 to 5 µM | > 90% | >95% | 0.1 to 1 µM | – | CC1(C(N)=O)CCc2ccc(C(=O)NCC(=O)Nc3nc(-c4cccc(-c5ccncc5)c4)cs3)cc21 (centres unmarked) [Compound 96]
1 to 5 µM | > 70% | >90% | 0.1 to 1 µM | – | Cc1cc(C(=O)NCC(=O)Nc2nc(-c3cccc(-c4ccncc4)c3)cs2)cc(C(C)(C)CN)c1C [Compound 97]
